How the values were obtained:
Format in all cases: physicochemical
[1] = Density of polar solvents; details: ambient temperature
[2] = Solubility tests of hydrogenated quinones (QH) in solvent mixtures, synthetic EQ/ETQ working solutions; details: comparison in words
Method: The determination of the QH solubility was performed on synthetic EQ/ETQ working solutions. These quinones mixed in the tested solvents have been hydrogenated to a fixed level and cooled down successively to 3 different temperatures before the measurement (min. 3 hours to stabilize the system between each measurement). The conditions applied for these tests were:
In this figure, Kb stands for the weight partition coefficient of hydrogen peroxide between the water and the working solution (mixture of quinones and organic solvents). It is calculated using the following formula: Kb=(g H2O2/kg aqueous phase)/(g H2O2/kg organic phase)
The maximum solubility of a hydrogenated quinone (QH) in a solvent mixture is directly correlated with the productivity of the working solution. The higher is the QH solubility, the higher will be the theoretical quantity of hydrogen peroxide achievable per kg of WS (Productivity). These theoretical values, designated by the terms “Productivity (gH2O2/kg of WS) measured” in Table 1, were calculated as follows: […]
1 mole (240 g) ETQH (which actually is the QH in our Examples) per kg of WS will produce 1 mole (34 g) of H2O2 per kg of WS.

[3] = Stability of the nitrile solvent during the AO process; details: nitrile function not protected
Excerpt: As explained above, the main feature of the invention is the recourse to a mixture of a polar organic solvent and a non-polar organic solvent wherein the polar organic solvent is a substituted cyclohexane carbonitrile. […] The substituent(s) are preferably alkyl groups, preferably methyl and/or ethyl group(s). […] Another alternative would be to use at least one propyl, diethyl, methyl isopropyl, butyl, t-butyle . . . the latter being preferred.

Density of polar solvents at amb T° [1] [kg/L]	Productivity values compared with sextate or a linear nitrile like decanenitrile [2]	Stability of the molecule during the AO process [3]	Compound
0.83	–	–	CCCCCCCCCC#N [Decanenitrile]
0.89	much higher (almost the double in fact)	–	CC1CCCC(C)(C)C1C#N (centres unmarked) [TMCH-CN, 2,2,6-trimethyl-cyclohexane-carbonitrile]
–	–	undergoes degradation	N#CC1CCCCC1 [Unsubstituted cyclohexane carbonitrile, cyclohexane carbonitrile]
0.94	–	–	methyl cyclohexyl acetate [Sextate]
